Results: PubChem BioAssay (NCI)
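96-well plates; 48 h exposure; 5 concentrations. Endpoints by linear interpolation between flanking doses. Not reached: highest tested concentration assigned. The concentration for full growth arrest is given as TGI.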

Experiments:
Assay in all cases: NCI tumour cell line growth inhibition, 48 h
HL-60(TB) leukemia = test system: HL-60(TB) leukemia
BT-549 breast = test system: BT-549 breast
T-47D breast = test system: T-47D breast
NCI/ADR-RES ovarian = test system: NCI/ADR-RES ovarian
NCI-H522 lung = test system: NCI-H522 lung
UACC-62 melanoma = test system: UACC-62 melanoma
HT29 colon = test system: HT29 colon
DU-145 prostate = test system: DU-145 prostate
ACHN renal = test system: ACHN renal
SNB-19 CNS = test system: SNB-19 CNS
M14 melanoma = test system: M14 melanoma
IGROV1 ovarian = test system: IGROV1 ovarian
SK-MEL-2 melanoma = test system: SK-MEL-2 melanoma
MDA-MB-231 breast = test system: MDA-MB-231 breast
HCT-116 colon = test system: HCT-116 colon
HOP-62 NSCLC = test system: HOP-62 NSCLC
CAKI-1 renal = test system: CAKI-1 renal
HCT-15 colon = test system: HCT-15 colon
MDA-N = test system: MDA-N
OVCAR-5 ovarian = test system: OVCAR-5 ovarian
SF-539 CNS = test system: SF-539 CNS
786-0 renal = test system: 786-0 renal
LOX IMVI melanoma = test system: LOX IMVI melanoma
CCRF-CEM leukemia = test system: CCRF-CEM leukemia
SK-MEL-5 melanoma = test system: SK-MEL-5 melanoma
SN12C renal = test system: SN12C renal
SF-268 CNS = test system: SF-268 CNS
COLO 205 colon = test system: COLO 205 colon
NCI-H460 lung = test system: NCI-H460 lung
HCC-2998 colon = test system: HCC-2998 colon
U251 CNS = test system: U251 CNS
NCI-H226 lung = test system: NCI-H226 lung
RPMI-8226 leukemia = test system: RPMI-8226 leukemia
HS 578T breast = test system: HS 578T breast
TK-10 renal = test system: TK-10 renal
SF-295 CNS = test system: SF-295 CNS
MDA-MB-435 = test system: MDA-MB-435
PC-3 prostate = test system: PC-3 prostate
UO-31 renal = test system: UO-31 renal
MOLT-4 leukemia = test system: MOLT-4 leukemia
OVCAR-3 ovarian = test system: OVCAR-3 ovarian
SW-620 colon = test system: SW-620 colon
NCI-H23 lung = test system: NCI-H23 lung
UACC-257 melanoma = test system: UACC-257 melanoma
SK-OV-3 ovarian = test system: SK-OV-3 ovarian
SR leukemia = test system: SR leukemia
OVCAR-8 ovarian = test system: OVCAR-8 ovarian
OVCAR-4 ovarian = test system: OVCAR-4 ovarian
SNB-75 CNS = test system: SNB-75 CNS
KM12 colon = test system: KM12 colon
A549 NSCLC = test system: A549 NSCLC
SK-MEL-28 melanoma = test system: SK-MEL-28 melanoma
MCF7 breast = test system: MCF7 breast
K-562 leukemia = test system: K-562 leukemia
HOP-92 NSCLC = test system: HOP-92 NSCLC
EKVX NSCLC = test system: EKVX NSCLC
A498 renal = test system: A498 renal
RXF 393 renal = test system: RXF 393 renal
MALME-3M melanoma = test system: MALME-3M melanoma

Q: Nc1n[n+]([O-])c2cnccc2[n+]1[O-] was tested. Which TGI (HL-60(TB) leukemia) did it give?
A: 47.7 µM

Q: What about the TGI (BT-549 breast) of the same molecule?
A: > 100 µM

Q: What about the TGI (T-47D breast) of the same molecule?
A: > 100 µM

Q: And the TGI (NCI/ADR-RES ovarian)?
A: > 100 µM

Q: And the TGI (NCI-H522 lung)?
A: > 100 µM

Q: What about the TGI (UACC-62 melanoma) of the same molecule?
A: 84.9 µM

Q: And the TGI (HT29 colon)?
A: > 100 µM

Q: And the TGI (DU-145 prostate)?
A: > 100 µM

Q: What about the TGI (ACHN renal) of the same molecule?
A: > 100 µM

Q: What about the TGI (SNB-19 CNS) of the same molecule?
A: > 100 µM

Q: What about the TGI (M14 melanoma) of the same molecule?
A: > 100 µM

Q: What about the TGI (IGROV1 ovarian) of the same molecule?
A: > 100 µM

Q: What about the TGI (SK-MEL-2 melanoma) of the same molecule?
A: > 100 µM

Q: What about the TGI (MDA-MB-231 breast) of the same molecule?
A: > 100 µM

Q: And the TGI (HCT-116 colon)?
A: > 100 µM

Q: And the TGI (HOP-62 NSCLC)?
A: > 100 µM

Q: And the TGI (CAKI-1 renal)?
A: > 100 µM

Q: And the TGI (HCT-15 colon)?
A: > 100 µM

Q: And the TGI (MDA-N)?
A: 36.6 µM

Q: What about the TGI (OVCAR-5 ovarian) of the same molecule?
A: > 100 µM

Q: What about the TGI (SF-539 CNS) of the same molecule?
A: > 100 µM

Q: What about the TGI (786-0 renal) of the same molecule?
A: > 100 µM

Q: And the TGI (LOX IMVI melanoma)?
A: > 100 µM

Q: What about the TGI (CCRF-CEM leukemia) of the same molecule?
A: > 100 µM

Q: What about the TGI (SK-MEL-5 melanoma) of the same molecule?
A: 30 µM

Q: And the TGI (SN12C renal)?
A: > 100 µM

Q: And the TGI (SF-268 CNS)?
A: > 100 µM

Q: What about the TGI (COLO 205 colon) of the same molecule?
A: > 100 µM

Q: And the TGI (NCI-H460 lung)?
A: > 100 µM

Q: What about the TGI (HCC-2998 colon) of the same molecule?
A: > 100 µM

Q: And the TGI (U251 CNS)?
A: > 100 µM

Q: What about the TGI (NCI-H226 lung) of the same molecule?
A: > 100 µM

Q: And the TGI (RPMI-8226 leukemia)?
A: > 100 µM

Q: And the TGI (HS 578T breast)?
A: > 100 µM

Q: What about the TGI (TK-10 renal) of the same molecule?
A: > 100 µM

Q: What about the TGI (SF-295 CNS) of the same molecule?
A: > 100 µM

Q: What about the TGI (MDA-MB-435) of the same molecule?
A: 38.5 µM

Q: What about the TGI (PC-3 prostate) of the same molecule?
A: > 100 µM

Q: And the TGI (UO-31 renal)?
A: > 100 µM

Q: And the TGI (MOLT-4 leukemia)?
A: > 100 µM

Q: And the TGI (OVCAR-3 ovarian)?
A: > 100 µM

Q: And the TGI (SW-620 colon)?
A: > 100 µM

Q: What about the TGI (NCI-H23 lung) of the same molecule?
A: > 100 µM

Q: And the TGI (UACC-257 melanoma)?
A: 77.9 µM

Q: And the TGI (SK-OV-3 ovarian)?
A: > 100 µM

Q: And the TGI (SR leukemia)?
A: > 100 µM

Q: And the TGI (OVCAR-8 ovarian)?
A: > 100 µM

Q: What about the TGI (OVCAR-4 ovarian) of the same molecule?
A: > 100 µM

Q: What about the TGI (SNB-75 CNS) of the same molecule?
A: > 100 µM

Q: What about the TGI (KM12 colon) of the same molecule?
A: > 100 µM

Q: What about the TGI (A549 NSCLC) of the same molecule?
A: > 100 µM

Q: And the TGI (SK-MEL-28 melanoma)?
A: > 100 µM

Q: Which TGI (HL-60(TB) leukemia) does the source give for CC(C)=CCC[C@@H](C)C1=C(O)C(Nc2ccccc2F)=C(C)C(=O)C1=O here?
A: 5.61 µM

Q: And the TGI (BT-549 breast)?
A: > 79.7 µM

Q: What about the TGI (T-47D breast) of the same molecule?
A: 57.7 µM

Q: What about the TGI (NCI/ADR-RES ovarian) of the same molecule?
A: 23 µM

Q: What about the TGI (UACC-62 melanoma) of the same molecule?
A: > 79.3 µM

Q: What about the TGI (HT29 colon) of the same molecule?
A: > 100 µM

Q: And the TGI (MCF7 breast)?
A: > 90 µM

Q: What about the TGI (DU-145 prostate) of the same molecule?
A: > 67.8 µM

Q: What about the TGI (ACHN renal) of the same molecule?
A: 49.5 µM

Q: What about the TGI (K-562 leukemia) of the same molecule?
A: > 100 µM

Q: What about the TGI (HOP-92 NSCLC) of the same molecule?
A: > 65.3 µM

Q: What about the TGI (SNB-19 CNS) of the same molecule?
A: > 100 µM

Q: What about the TGI (M14 melanoma) of the same molecule?
A: > 57.6 µM

Q: And the TGI (IGROV1 ovarian)?
A: > 69.5 µM

Q: What about the TGI (SK-MEL-2 melanoma) of the same molecule?
A: 68.3 µM

Q: What about the TGI (MDA-MB-231 breast) of the same molecule?
A: > 100 µM

Q: What about the TGI (HCT-116 colon) of the same molecule?
A: 47.6 µM

Q: And the TGI (HOP-62 NSCLC)?
A: > 55.7 µM

Q: And the TGI (EKVX NSCLC)?
A: > 100 µM

Q: What about the TGI (CAKI-1 renal) of the same molecule?
A: 48.2 µM

Q: What about the TGI (HCT-15 colon) of the same molecule?
A: > 70.2 µM

Q: And the TGI (MDA-N)?
A: > 100 µM

Q: What about the TGI (OVCAR-5 ovarian) of the same molecule?
A: > 100 µM

Q: What about the TGI (786-0 renal) of the same molecule?
A: > 100 µM

Q: What about the TGI (LOX IMVI melanoma) of the same molecule?
A: > 100 µM

Q: What about the TGI (CCRF-CEM leukemia) of the same molecule?
A: 5.86 µM

Q: What about the TGI (SK-MEL-5 melanoma) of the same molecule?
A: 42.3 µM

Q: What about the TGI (SN12C renal) of the same molecule?
A: > 100 µM

Q: What about the TGI (SF-268 CNS) of the same molecule?
A: > 54 µM

Q: What about the TGI (COLO 205 colon) of the same molecule?
A: > 68.9 µM

Q: And the TGI (NCI-H460 lung)?
A: > 100 µM

Q: And the TGI (HCC-2998 colon)?
A: > 100 µM

Q: What about the TGI (U251 CNS) of the same molecule?
A: > 100 µM

Q: What about the TGI (NCI-H226 lung) of the same molecule?
A: > 78.7 µM

Q: And the TGI (RPMI-8226 leukemia)?
A: > 89.1 µM

Q: What about the TGI (HS 578T breast) of the same molecule?
A: 54.8 µM

Q: And the TGI (TK-10 renal)?
A: > 100 µM

Q: What about the TGI (SF-295 CNS) of the same molecule?
A: 30.4 µM

Q: And the TGI (MDA-MB-435)?
A: > 100 µM

Q: What about the TGI (PC-3 prostate) of the same molecule?
A: > 100 µM

Q: And the TGI (UO-31 renal)?
A: 47.7 µM

Q: What about the TGI (A498 renal) of the same molecule?
A: 67.2 µM

Q: What about the TGI (MOLT-4 leukemia) of the same molecule?
A: > 100 µM

Q: And the TGI (OVCAR-3 ovarian)?
A: > 30.4 µM

Q: What about the TGI (SW-620 colon) of the same molecule?
A: > 100 µM

Q: What about the TGI (NCI-H23 lung) of the same molecule?
A: > 56.8 µM

Q: And the TGI (UACC-257 melanoma)?
A: > 100 µM

Q: What about the TGI (RXF 393 renal) of the same molecule?
A: > 57.1 µM

Q: And the TGI (SK-OV-3 ovarian)?
A: > 100 µM

Q: And the TGI (SR leukemia)?
A: > 100 µM

Q: What about the TGI (MALME-3M melanoma) of the same molecule?
A: 41.1 µM

Q: And the TGI (OVCAR-8 ovarian)?
A: > 100 µM

Q: What about the TGI (OVCAR-4 ovarian) of the same molecule?
A: > 100 µM

Q: And the TGI (SNB-75 CNS)?
A: > 78.8 µM

Q: And the TGI (KM12 colon)?
A: > 100 µM

Q: And the TGI (A549 NSCLC)?
A: > 77.5 µM

Q: And the TGI (SK-MEL-28 melanoma)?
A: > 100 µM
